Results on 3 compounds are retold here after patent US6545048B1, “Compositions and methods of treating cancer using compositions comprising an inhibitor or endothelin receptor activity” (California Institute of Technology, priority 1999, dated 2003).

Entries after “also recorded” stand apart in the source; their conditions may differ. Where a SMILES comes first, the peptide text is derived from it. [ ]: non-standard residue; d: D form.

Data set [1] relates to human melanoma cell lines. Description: MTS cell viability/cell number assay, melanoma lines. Format: cell-based. The note with it: for number of viable cells: 4 days. The method, then: Cells were cultured in the presence of BQ788 or vehicle or with no treatment for 4 days. Three wells of each condition were subjected to the MTS assay. The means were calculated and plotted as percent of the vehicle-treated value, +S.E.M. P values were calculated using […] for absolute values. The experiment was repeated 3 times, each yielding similar results.
(§1) Cell culture. Human melanoma cell lines were obtained from the American Tissue Culture Collection (ATCC) and were cultured with Dulbecco's Eagle medium (ATCC), containing 10% fetal calf serum, glutamine (Gibco) and antibiotics (concentration; Pen-Strep mix, Gibco) in a humidified incubator with 5% CO2 at 37° C. BQ788 and BQ123 (Calbiochem) were dissolved in 2% polyoxythylene (60) hydrogenated castor oil (HCO60; Nikko Chemicals). Cells were cultured in 96 well ELISA plates. For the cell viability/cell number assay, the day after plating, inhibitor or vehicle was added ard the cultures incubated for 4 days. The MTS assay was used to quantify cells by measuring OD at […] (Promega).

In data set [2] the test system is A375 melanoma tumor. Put plainly: Histology of tumors from the i.p. experiment (TUNEL, anti-CD31). The format is in vivo, nude mice. The protocol:
FIGS. 8A-8D show representative sections from 4 tumors from BQ788 injected mice and FIGS. 8E-8G show tumors from vehicle-injected mice. […] The magnification is 20×.
Immunohistochemistry. Tumors were frozen on dry ice, cut on a cryostat into 20 μm sections, and stored at −80° C. Sections were rinsed in calcium and magnesium-free phosphate buffered saline (PBS), fixed in 4% paraformaldehyde for 1 hour at room temperature, blocked with 2% rabbit serum and incubated with primary antibody overnight at 4° C. After washing in PBS sections were incubated with a biotinylated secondary antibody, and staining developed using the Elite ABC kit (Vector Laboratories, CA). The primary antibodies used in this study were monoclonal rat anti-mouse CD31 (platelet endothelial cell adhesion molecule) and rat anti-mouse CD45 (leukocyte common antigen found on all cells of hematopoietic origin, except erythrocytes) (Pharmagen, San Diego, Calif.). A cell death kit was used for TUNEL staining (Boehringer Mannheim).
Several of the tumors from the i.p. injection experiment were taken for histological examination on day 10. Sections were stained with anti-CD31 antibody for angiogenesis, and with the TUNEL method for apoptosis. […] These effects in culture appear mediated by the action of the drug on ETRB itself, as BQ788 is ineffective on A375 cells in the presence of the ETRB agonist S6c. A further indication of the specificity of the action of BQ788 is its very different effect on kidney 293 cells.

Data set [3] relates to A375 melanoma tumor. Description: Systemic (i.p.) administration, A375 melanoma grafts in nude mice. The format is in vivo. The method, then:
The experiment was similar to that described in FIG. 6, except that the drug and vehicle were injected daily i.p. In FIG. 7A, the data for the 6 BQ788-treated mice were pooled.
We next asked if systemic administration of BQ788 inhibits tumor growth. In these experiments, tumor induction and the starting point of the treatments were as for the intra-tumor approach. At that point, mice were injected i.p. with 100 μl of BQ788 solution (0.6 mg BQ788 in 30% water and 70% saline, at a final HCO60 concentration of 0.6%) once or twice a day for a period of 9 days. Control mice received the same injections but without BQ788. In the first experiment, mice were injected once a day, and in the second experiment the mice were injected in the morning and then again in the early evening. […] However, there was some heterogeneity in the response of the mice to BQ788.

Data set [4] has as its system kidney 293 cells. Description: MTS cell viability/cell number assay, kidney cells. Format: cell-based, human. The conditions noted are these: high concentrations, 4 days.
The conditions of data set [5]: literature reports; cited from earlier work.
For data set [6], the system named is kidney 293 cells. Description: Morphology of cultured kidney 293 cells treated with antagonist (bright field). The format is cell-based, human. The note with it: 100 μM, 4 days. The protocol:
(§2) Cells were cultured for 4 days with 100 μM BQ788 (FIGS. A, C, and E) or with vehicle (FIGS. B, D, and F). The cell lines were melanoma line SK-MEL 28 (FIGS. A and B), melanoma line SK-MEL 5 (FIGS. C and D), and kidney 293 (FIGS. E and F). […] Pictures were taken with bright field optics at 40×magnification.
as §1
(§3) To test the hypothesis that ETRB function plays a role in melanoma cell growth and differentiation, we cultured 7 human melanoma cell lines and one human kidney cell line with the selective ETRB antagonist, BQ788.

The test system of data set [7] is A375 melanoma tumor. Put plainly: Intra-tumor injection, A375 melanoma grafts in nude mice. Format: in vivo, nude mice (nu/nu, BALB/c background). The method, then:
Nude mice (nu/nu, BALB/c background) were implanted with grafts of A375 cells subcutaneously on the flank. After the tumors had reached approximately 4 mm in diameter they were injected daily with BQ788 for 9 days. Perpendicular tumor diameters were measured daily to estimate tumor volume. Controls were injected on the same schedule with vehicle. Data from 3 experiments utilizing 10 BQ788-treated mice and 8-vehicle treated mice were pooled. P values were calculated using t test. Similar conclusions come from measuring tumor weights.
For the in vivo experiments we chose the A375 melanoma cell line. Although this line is not the most sensitive to BQ788 treatment in culture, it is known to grow readily in nude mice. First, dissociated cells were injected as a suspension into the flank of nude mice. When tumors developed, one mouse was sacrificed, the tumor removed and cut into pieces of approximately 3 mm in diameter and implanted under the skin of a new series of nude mice. When the tumor reaches 4 mm in diameter (which takes approximately 12 days, but can vary), 25 μl of a solution containing 20, μg/μl of BQ788 dissolved in 2% polyoxythylene (60) hydrogenated castor oil (HCO60) (Ishikawa, et al., Proc. Natl. Acad. Sci. USA, 91:4892-6 (1994)) was injected into the center of the tumor daily for 9 days. Tumors in control mice were injected in the same way with 25 μl of 2% HCO60. Before each injection the tumor dimensions were measured. At the outset, the mean tumor volume was 26 mm^3 in both control and BQ788-treated mice. […] Similar conclusions come from comparison of tumor weights (means of 446 mg versus 93 mg; p<0.005).

Another data set has as its system A375 cells. Put plainly: MTS assay, S6c alone or in combination with BQ788. Format: cell-based, human. The protocol:
In experiments similar to those illustrated in FIG. 2, S6c was tested for its effects on cultured A375 cells, alone or in combination with BQ788, at various concentrations.
as §1
Thus, the ability of BQ788 to lower melanoma cell number is likely to be through its action on ETRB and not as a side effect on another aspect of melanoma cell physiology.
For orientation: Tetrazolium assays rely on reduction of a dye to a coloured formazan, in cell work by metabolically active cells.

The subject of data set [8] is human melanoma cell lines. Description: Morphology of cultured melanoma cells treated with antagonist (bright field). Format: cell-based. The protocol:
as §2, §1, §3

The mark [9] stands for this setting: A375, SK-MEL 28 and RPMI 7951 cells.

As to `CC(C)C[C@@H]1NC(=O)[C@@H](C(C)C)NC(=O)[C@@H]2CCCN2C(=O)[C@@H](CC(=O)O)NC(=O)[C@@H](Cc2c[nH]c3ccccc23)NC1=O` [BQ123] (cyclo(L[dW][dD]P[dV])), the cell number result in [1] (A375 and SK-MEL 28 melanoma lines) is reported as “slightly increases cell number”. Also, the “number of viable cells” value in data set [1] (any of the cell lines, even at high concentrations) is reported as “does not reduce the number of viable cells; also recorded: did not inhibit melanoma cell growth in culture”.

Consider `CCCC[C@@H](NC(=O)[C@@H](Cc1cn(C(=O)OC)c2ccccc12)NC(=O)[C@H](CC(C)(C)C)NC(=O)N1[C@H](C)CCC[C@@H]1C)C(=O)O` [BQ788, N-cis-2,6-dimethylpiperidinocarbonyl-L-γ-methylleucyl-D-1-methoxycarbonyltrptophanyl-D-norleucine], for which the viability entry in data set [1] (setting [9]) is “almost complete loss of viability”; in data set [1] (SK-MEL 3 cells), “less affected than the other lines”; in data set [1] (SK-MEL 24 and SK-MEL 31 cells) it was “more affected”. Also, the “sensitivity among the cell lines” value in data set [1] (RPMI 7951 cells) is recorded as “highest degree of sensitivity”. For the same compound, the “number of viable cells” value in data set [1] (all 7 melanoma lines, 100 μM) is reported as “reduces the number of viable cells; also recorded: very significant loss in the number of viable cells”; in the data set on kidney 293 cells [4] it was “not kidney cells; also recorded: is not reduced”. The “TUNEL labeling (apoptosis)” value in the data set on A375 melanoma tumor [2] (day 10) is on record as “TUNEL-positive cells are comparatively greater”; in the data set with A375 melanoma tumor [2] (day 10, listed as BQ-788), “enhanced TUNEL labeling”. For the same compound, in the data set on A375 melanoma tumor [2] (day 10 (data not shown)), the “angiogenesis (anti-CD31 staining)” value is reported as “no evidence that BQ788 blocks angiogenesis”. In addition, the tumor growth result with A375 melanoma tumor [3] (i.p. once or twice a day for 9 days, pooled mice) is reported as “inhibits melanoma tumor growth; also recorded: effective inhibition of tumor growth”; with A375 melanoma tumor [7] (intra-tumor injection daily for 9 days), “inhibits melanoma tumor growth”. Also, in the data set on A375 melanoma tumor [3] (i.p., after 6 days, one set of mice), the “tumor growth, first subgroup of mice” value is on record as “slowed tumor growth”. In addition, the “tumor growth, second subgroup of mice” value in the data set on A375 melanoma tumor [3] (i.p., after 6 days, other set of mice) is “caused the tumors to regress; also recorded: the tumors shrank and displayed complete growth arrest”. In addition, the “tumor size versus day 1” value in the data set with A375 melanoma tumor [3] (i.p., first 6 days) is “did not differ significantly from their size at day 1”. In addition, the tolerability entry in [5] is listed as “can be well tolerated”. The morphological changes entry with kidney 293 cells [6] is “does not result in any of these morphological changes”; in [8] (SK-MEL 28 cells, 100 μM, 4 days), “develop large cytoplasmic vacuoles and enhanced pigmentation”. Besides, the “growth rate (final size minus initial size) compared to controls” value with A375 melanoma tumor [7] (9 days, intra-tumor injection) is 6 times slower. In the data set on A375 melanoma tumor [7] (after 9 days of daily intra-tumor injection, control 376 mm^3, 26 mm^3 at the outset), this compound returned a mean tumor volume of 84 mm^3. The “tumor weight (mean)” value in the data set with A375 melanoma tumor [7] (intra-tumor injection, control 446 mg, p<0.005) amounted to 93 mg. Moreover, the “effect of BQ788 on cells in the presence of S6c” value in the data set on A375 cells (A375 cells, ETRB agonist S6c present) is on record as “ineffective”. Moreover, the morphology entry in data set [8] (setting [9]) is “vacuoles in their cytoplasm”; in [8] (SK-MEL 3 cells), “increased surface area (dendritic morphology)”; in data set [8] (SK-MEL 24 and SK-MEL 31 cells) it was “increased pigmentation”; in [8] (SK-MEL 28 and SK-MEL 5, 100 μM, 4 days (FIG. 1 legend)), “different shape and accumulation of black pigment”. For the same compound, the phenotype / dendricity result in data set [8] (SK-MEL 5 cells, 100 μM, 4 days) is given as “dendritic phenotype; also recorded: increased dendricity”. The surface area entry in [8] (all the melanoma lines) is given as “increased surface area”. The pigmentation result in data set [8] (most melanoma lines (except for SK-MEL 3)) is given as “major increases in pigmentation”.

In the case of sarafotoxin 6c [S6c], in the data set with A375 cells (S6c alone, 0.1 to 1 μM), the A375 cell number entry is listed as “stimulates cell growth; also recorded: increases A375 cell number”. The “block of the effects of BQ788 on cell number” value in the data set on A375 cells (S6c in combination with BQ788, A375 cells) is “can block the inhibitory effects of the ETRB antagonist; also recorded: can completely block the effects of BQ788”.
